Where two headings read alike, the source gives them in different places.
Key:
[1] = biological target: T1, c-Met kinase domain recombinant protein (Homo sapiens, UniProt P08581); assay: biochemical; conditions: for inhibition at 10 µM: read-out: Inhibition rate at 10 μM (%)
T1 construct: 50 μL diluted solution of c-Met kinase domain recombinant protein in reaction buffer was added to initiate the reaction
Procedure, shortened: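 Recombinant c-Met kinase domain phosphorylated immobilised Poly(Glu,Tyr)4:1 for 1 h at 37 °C in 50 mM HEPES pH 7.4, 50 mM MgCl2, 0.5 mM MnCl2, 0.2 mM Na3VO4, 1 mM DTT with ATP. Product measured by anti-phosphotyrosine PY99 ELISA (HRP, 490 nm), giving percent inhibition; ATP-free wells served as control.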

[2] = biological target: T1, c-Met kinase domain recombinant protein; assay: biochemical; conditions: for inhibition at 0.1 µM: read-out: Average inhibition rate at 0.1 μM (%); for inhibition at 1 µM: read-out: Average inhibition rate at 1 μM (%); for inhibition at 10 µM: read-out: Average inhibition rate at 10 μM (%)
Procedure, shortened: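 IC50 came from a four-parameter fit of inhibition rates measured by anti-phosphotyrosine (PY99/HRP) ELISA at 490 nm. The reaction ran 1 hour at 37° C with 5 μM ATP, c-Met kinase domain protein and Poly(Glu,Tyr)4:1-coated wells, in HEPES pH 7.4 buffer containing MgCl2, MnCl2, Na3VO4 and DTT.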

BaF3/TPR-Met cell = assay: Test III: growth inhibition of engineered BaF3/TPR-Met cells (MTT); assay type: cell-based; conditions: BaF3/TPR-Met, 72 hours; for inhibition at 0.2 µM / inhibition at 1 µM: Mus musculus; for inhibition at 0.2 µM: read-out: Cell proliferation inhibition rate at 200 nM (%), 200 nM; for inhibition at 1 µM: read-out: Cell proliferation inhibition rate at 1 μM (%)
Description: Assays on the growth inhibition of the compounds against engineered BaF3/TPR-Met cell (engineered cell line having TPR-Met fusion protein stably expressed in cytoplasm, persistently activated, Met dependent sensitive cell line; BaF3 cell was purchased from DSMZ, German) were detected using microculture tetrozolium (MTT) staining. A certain amount of BaF3/TPR-Met cells at log phase were inoculated into 96-well culture plate at 90 µL per well, incubated overnight and then 10 μL compound at various concentrations or vehicle control (normal saline) was added, each concentration was tested in triplicate. After incubation with compound for 72 hours, the incubation was terminated, MTT solution (5 mg/mL) was added at 20 μL per well, incubated at 37° C. for 4 hours, then 100 μL triplet solution (10% SDS−5% isobutanol−0.01M HCl) was added, incubated overnight at 37° C., OD value was measured at 570 nm. […] Experiments were conducted in duplicates.

T1 sequence (P08581 1078-1345 limits assumed): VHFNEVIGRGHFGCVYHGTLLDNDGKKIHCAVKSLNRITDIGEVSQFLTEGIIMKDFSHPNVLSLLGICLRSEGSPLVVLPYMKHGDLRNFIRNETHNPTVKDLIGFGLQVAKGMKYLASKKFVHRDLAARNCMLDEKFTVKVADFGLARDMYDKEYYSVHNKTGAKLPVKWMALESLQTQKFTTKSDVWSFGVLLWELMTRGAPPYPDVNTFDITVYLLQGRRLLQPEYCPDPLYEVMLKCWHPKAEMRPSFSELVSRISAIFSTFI

| SMILES | inhibition at 10 µM [1] | inhibition at 0.1 µM [2] | inhibition at 1 µM [2] | inhibition at 10 µM [2] | inhibition at 0.2 µM (BaF3/TPR-Met cell) | inhibition at 1 µM (BaF3/TPR-Met cell; 1 μM) | Inhibition rate at 10 μM (%) ([1]; compound 10 μM, Table 1) | Average inhibition rate at 0.1 μM (%) ([2]; compound 0.1 μM) | Average inhibition rate at 1 μM (%) ([2]; compound 1 μM) | Average inhibition rate at 10 μM (%) ([2]; compound 10 μM, Table 2) | Cell proliferation inhibition rate at 1 μM (%) (BaF3/TPR-Met cell; 1 μM) |
| --- | --- | --- | --- | --- | --- | --- | --- | --- | --- | --- | --- |
| O=C(C1CCCCC1)N1CCC(n2cc(-c3cnc4cnn(S(=O)(=O)c5cnc6ccccn56)c4c3)cn2)CC1 [Example 57, 1-(imidazo[1,2-a]pyridine-3-sulfonyl)-6-{{1-[(1-cyclohexylcarbonyl)-4-piperidinyl]}-4-pyrazolyl}-1-H-pyrazolo[4,3-b]pyridine] | 60.8% | 52.4% | 54.5% | 60.3% | 86.8% | 89.5% |  |  |  |  |  |
| CC(C)N1CCC(n2cc(-c3cnc4cnn(S(=O)(=O)c5cnc6ccccn56)c4c3)cn2)CC1 [Example 59, 1-(imidazo[1,2-a]pyridine-3-sulfonyl)-6-{{1-[(1-isopropyl)-4-piperidinyl]}-4-pyrazolyl}-1-H-pyrazolo[4,3-b]pyridine] | 60.3% | 51.6% | 51.9% | 59.8% | 70.6% | 89.8% |  |  |  |  |  |
| O=S(=O)(c1cnc2ccccn12)n1ncc2ncc(-c3cnn(C4CCN(C5CCCC5)CC4)c3)cc21 [Example 60, 1-(imidazo[1,2-a]pyridine-3-sulfonyl)-6-{{1-[(1-cyclopentyl)-4-piperidinyl]}-4-pyrazolyl}-1-H-pyrazolo[4,3-b]pyridine] | 57.4% | 50.1% | 53.4% | 62.6% | 84.8% | 89.4% |  |  |  |  |  |
| CC(C)(C)OC(=O)N1CCC(n2cc(-c3cnc4cnn(S(=O)(=O)c5cnc6ccc(Cl)nn56)c4c3)cn2)CC1 [Example 61] | 59.8% | 73.7% | 76% | 83.2% | 83.1% | 91.7% |  |  |  |  |  |
| CC(C)(C)OC(=O)N1CCC(n2cc(-c3cnc4cnn(S(=O)(=O)c5cnc6ccc(C(F)(F)F)cn56)c4c3)cn2)CC1 [Example 63] | 83.2% | 59% | 60.4% | 63% |  | 66.5% |  |  |  |  |  |
| Cl.O=S(=O)(c1cnc2ccccn12)n1ncc2ncc(-c3cnn(C4CCNCC4)c3)cc21 [Example 66, 1-(imidazo[1,2-a]pyridine-3-sulfonyl)-6-{[1-(4-piperidinyl)]-4-pyrazolyl}-1-H-pyrazolo[4,3-b]pyridine chloride] |  |  |  |  |  |  | 63% | 73.3% | 75.8% | 79.9% | 92.7% |
| CC(C)(C)OC(=O)N1CCC(n2cc(-c3cnc4cnn(S(=O)(=O)c5cnc6ccc(Cl)cn56)c4c3)cn2)CC1 [Example 67] | 66% | 63.1% | 64.6% | 68.2% | 90.3% | 91.6% |  |  |  |  |  |
